Experimental data from the NIST ThermoML archive (doi:10.1021/je100687x).
± gives the expanded uncertainty stated by the source.

Assay: xn = mol fraction of the nth substance listed
Conditions: 101 kPa, Liquid; for electrical conductivity: Crison GLP 31+ conductivimeter

CCCCCCn1cc[n+](C)c1.F[B-](F)(F)F [1-hexyl-3-methylimidazolium tetrafluoroborate] + CCO
Conditions | electrical conductivity [S/m] | viscosity [mPa·s]
288.15 K, x2 = 0 | – | 357.5 ± 76
288.15 K, x2 = 0.1 | – | 207.2 ± 32
288.15 K, x2 = 0.197 | – | 118.9 ± 11
288.15 K, x2 = 0.298 | – | 69.02 ± 2.6
288.15 K, x2 = 0.3877 | – | 48.92 ± 1.5
288.15 K, x2 = 0.4921 | – | 27.71 ± 0.87
288.15 K, x2 = 0.6009 | – | 16.92 ± 0.54
288.15 K, x2 = 0.7 | – | 9.866 ± 0.32
288.15 K, x2 = 0.8002 | – | 5.545 ± 0.19
288.15 K, x2 = 0.902 | – | 2.893 ± 0.11
298.15 K, x2 = 0 | 0.126 ± 0.001 | 190.9 ± 28
298.15 K, x2 = 0.1 | – | 119.2 ± 11
298.15 K, x2 = 0.197 | – | 72.6 ± 3.1
298.15 K, x2 = 0.2439 | 0.33 ± 0.001 | –
298.15 K, x2 = 0.298 | – | 43.77 ± 1.4
298.15 K, x2 = 0.3877 | – | 32.06 ± 1
298.15 K, x2 = 0.3981 | 0.565 ± 0.001 | –
298.15 K, x2 = 0.4566 | 0.66 ± 0.001 | –
298.15 K, x2 = 0.4921 | – | 18.86 ± 0.6
298.15 K, x2 = 0.507 | 0.769 ± 0.001 | –
298.15 K, x2 = 0.5491 | 0.877 ± 0.001 | –
298.15 K, x2 = 0.5861 | 0.947 ± 0.001 | –
298.15 K, x2 = 0.6009 | – | 12.09 ± 0.39
298.15 K, x2 = 0.6189 | 1.034 ± 0.001 | –
298.15 K, x2 = 0.645 | 1.083 ± 0.001 | –
298.15 K, x2 = 0.6708 | 1.129 ± 0.001 | –
298.15 K, x2 = 0.6938 | 1.17 ± 0.001 | –
298.15 K, x2 = 0.7 | – | 7.513 ± 0.25
298.15 K, x2 = 0.7145 | 1.206 ± 0.001 | –
298.15 K, x2 = 0.733 | 1.216 ± 0.001 | –
298.15 K, x2 = 0.7495 | 1.222 ± 0.001 | –
298.15 K, x2 = 0.7648 | 1.244 ± 0.001 | –
298.15 K, x2 = 0.7909 | 1.25 ± 0.001 | –
298.15 K, x2 = 0.8002 | – | 4.191 ± 0.15
298.15 K, x2 = 0.8217 | 1.225 ± 0.001 | –
298.15 K, x2 = 0.8454 | 1.19 ± 0.001 | –
298.15 K, x2 = 0.8637 | 1.144 ± 0.001 | –
298.15 K, x2 = 0.8755 | 1.109 ± 0.001 | –
298.15 K, x2 = 0.8857 | 1.07 ± 0.001 | –
298.15 K, x2 = 0.8946 | 1.033 ± 0.001 | –
298.15 K, x2 = 0.902 | – | 2.284 ± 0.092
298.15 K, x2 = 0.9042 | 0.98 ± 0.001 | –
298.15 K, x2 = 0.9133 | 0.929 ± 0.001 | –
298.15 K, x2 = 0.9214 | 0.879 ± 0.002 | –
298.15 K, x2 = 0.9267 | 0.832 ± 0.002 | –
298.15 K, x2 = 0.9347 | 0.778 ± 0.002 | –
298.15 K, x2 = 0.9437 | 0.702 ± 0.002 | –
298.15 K, x2 = 0.9526 | 0.621 ± 0.002 | –
298.15 K, x2 = 0.9593 | 0.57 ± 0.002 | –
298.15 K, x2 = 0.9686 | 0.473 ± 0.002 | –
298.15 K, x2 = 0.9758 | 0.393 ± 0.002 | –
298.15 K, x2 = 0.9803 | 0.331 ± 0.003 | –
298.15 K, x2 = 0.9858 | 0.262 ± 0.003 | –
298.15 K, x2 = 0.9892 | 0.214 ± 0.003 | –
298.15 K, x2 = 0.9934 | 0.147 ± 0.003 | –
298.15 K, x2 = 0.996 | 0.102 ± 0.004 | –
298.15 K, x2 = 0.9979 | 0.0636 ± 0.0037 | –
308.15 K, x2 = 0 | – | 110.3 ± 9.5
308.15 K, x2 = 0.1 | – | 74.2 ± 3.3
308.15 K, x2 = 0.197 | – | 46.59 ± 1.4
308.15 K, x2 = 0.298 | – | 29.55 ± 0.92
308.15 K, x2 = 0.3877 | – | 22.1 ± 0.69
308.15 K, x2 = 0.4921 | – | 13.73 ± 0.44
308.15 K, x2 = 0.6009 | – | 9.004 ± 0.3
308.15 K, x2 = 0.7 | – | 5.487 ± 0.19
308.15 K, x2 = 0.8002 | – | 3.278 ± 0.12
308.15 K, x2 = 0.902 | – | 1.867 ± 0.08
318.15 K, x2 = 0 | – | 68.5 ± 2.6
318.15 K, x2 = 0.1 | – | 48.17 ± 1.5
318.15 K, x2 = 0.197 | – | 32.05 ± 1
318.15 K, x2 = 0.298 | – | 21.19 ± 0.67
318.15 K, x2 = 0.3877 | – | 16.11 ± 0.51
318.15 K, x2 = 0.4921 | – | 10.3 ± 0.34
318.15 K, x2 = 0.6009 | – | 6.945 ± 0.23
318.15 K, x2 = 0.7 | – | 4.498 ± 0.16
318.15 K, x2 = 0.8002 | – | 2.636 ± 0.1
318.15 K, x2 = 0.902 | – | 1.506 ± 0.069
